# Experimental data from paper PMC8467576, “Novel Ubiquitin Specific Protease-13 Inhibitors Alleviate Neurodegenerative Pathology” (Metabolites, 2021).
# What was measured:
# Type in all cases: cell-based
# [1] = test system: SH-SY5Y human neuroblastoma cells; experiment: LDH and MTT cell viability assays; settings: 5 h, compared to DMSO or untreated controls
# Procedure: BK50118-B and BK50118-C (Figure 2C,D) decreased cell viability near and above 100 μM compared to DMSO or untreated controls. CL3-499 (Figure 2G) decreased cell viability near and above 1 mM compared to DMSO or untreated controls.
# (§1) SH-SY5Y cells were transiently transfected for 24 h with human wild-type α-synuclein using Fugene HD transfection reagent (Promega, E2311, Madison, WI, USA) according to manufacturer’s protocol. Cells were treated with 1 mM, 0.1 mM, 0.01 mM, 1 µM, 0.1 µM, 0.01 µM and 0.001 µM of each novel compounds (BK50118-A, BK50118-B, BK50118-C, CL3-499, CL3-512 and CL3-514) dissolved in DMSO for 5 h. Cells were then harvested on ice by removing culture medium and adding 0.2 mL 1x sodium-tris, EDTA, NP-40 (STEN) buffer (50 mM Tris (pH 7.6), 150 mM NaCl, 2 mM EDTA, 0.2 % NP-40, 0.2 % with Halt protease and phosphatase inhibitor solution (ThermoFisher, 78446). Cells were detached with a cell scraper and collected into centrifuge tubes and incubated at 4 °C for 30 min with agitation. Samples were stored at −80 °C and used for ELISA analyses. For cell viability assay, SHSY-5Y cells stably expressing human wild-type alpha-synuclein were treated with 1 mM, 0.1 mM, 0.01 mM, 1 µM, 0.1 µM, 0.01 µM and 0.001 µM of each novel compound (BK50118-A, BK50118-B, BK50118-C, CL3-499, CL3-512 and CL3-514) dissolved in DMSO for 5 h. Cell viability was determined via lactate dehydrogenase assay on culture media (Thermofisher, 88954) and MTT assay on plated cells (Thermofisher, V13154).
# [2] = test system: human alpha-synuclein; experiment: Human alpha-synuclein ELISA in transfected SH-SY5Y cells; settings: 5 h, at 1 mM and 100 µM
# Procedure: (§2) Stably transfected human neuroblastoma SH-SY5Y cells with human wild-type alpha-synuclein were treated with 1 mM, 100 µM, 10 µM, 1 µM, 0.1 µM, 0.01 µM and 0.001 µM of each of BK50118-A, BK50118-B, BK50118-C, CL3-499, CL3-512 and CL3-514 dissolved in an equivalent volume of DMSO for 5 h. […] The other 5 compounds were also able to lower alpha-synuclein levels but with less potency (Figure 3H,I,K–M).
# SH-SY5Y cells were transiently transfected for 24 h with human wild-type α-synuclein using Fugene HD transfection reagent (Promega, E2311, Madison, WI, USA) according to manufacturer’s protocol. Cells were treated with 1 mM, 0.1 mM, 0.01 mM, 1 µM, 0.1 µM, 0.01 µM and 0.001 µM of each novel compounds (BK50118-A, BK50118-B, BK50118-C, CL3-499, CL3-512 and CL3-514) dissolved in DMSO for 5 h. […] Cell viability was determined via lactate dehydrogenase assay on culture media (Thermofisher, 88954) and MTT assay on plated cells (Thermofisher, V13154). […]
# [3] = target: T1, USP13 (Homo sapiens, UniProt Q92995); experiment: USP13 activity via functional ELISA in alpha-synuclein transfected SH-SY5Y cells; settings: SH-SY5Y cells transfected with human alpha-synuclein, 5 h, read-out: Estimated IC50 to USP13
# T1 construct: ELISA for USP13 (MyBioSource, Cat # MBS9335287, San Diego, CA, USA); endogenous in cells; host or cells: human SH-SY5Y neuroblastoma cells transfected with human wild-type alpha-synuclein
# T1 sequence (Q92995 1-863): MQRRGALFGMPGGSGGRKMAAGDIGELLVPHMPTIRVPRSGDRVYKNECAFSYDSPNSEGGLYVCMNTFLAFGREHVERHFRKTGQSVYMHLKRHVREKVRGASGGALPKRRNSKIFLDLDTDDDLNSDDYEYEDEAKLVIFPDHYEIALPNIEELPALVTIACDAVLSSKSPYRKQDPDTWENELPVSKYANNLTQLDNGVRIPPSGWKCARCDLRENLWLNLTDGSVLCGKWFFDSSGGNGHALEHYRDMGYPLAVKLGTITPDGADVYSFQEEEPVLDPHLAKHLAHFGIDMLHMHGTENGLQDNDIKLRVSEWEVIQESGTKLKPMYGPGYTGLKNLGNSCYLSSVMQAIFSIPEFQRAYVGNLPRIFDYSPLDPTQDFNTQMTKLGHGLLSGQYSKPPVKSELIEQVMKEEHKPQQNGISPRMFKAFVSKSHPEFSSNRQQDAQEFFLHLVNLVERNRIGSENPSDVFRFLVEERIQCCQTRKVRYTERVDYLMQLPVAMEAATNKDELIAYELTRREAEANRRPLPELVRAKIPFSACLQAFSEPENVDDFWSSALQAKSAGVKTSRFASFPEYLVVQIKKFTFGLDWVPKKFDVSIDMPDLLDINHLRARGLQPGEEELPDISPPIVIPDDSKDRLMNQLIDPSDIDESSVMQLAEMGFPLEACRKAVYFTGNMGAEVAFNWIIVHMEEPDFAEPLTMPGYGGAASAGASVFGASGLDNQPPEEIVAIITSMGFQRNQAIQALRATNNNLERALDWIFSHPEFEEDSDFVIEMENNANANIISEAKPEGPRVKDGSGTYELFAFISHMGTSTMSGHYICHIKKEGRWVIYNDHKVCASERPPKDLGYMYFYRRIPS
# Procedure: as §2, §1
# The ELISA for USP13 (MyBioSource, Cat # MBS9335287, San Diego, CA, USA), Human alpha-synuclein (Biolegend, Cat # 844101, San Diego, CA, USA) and specific p-Tau ser396 (Invitrogen, KHB7031, Waltham, MA, USA) were performed on cell or brain tissue extracts as described above according to manufacturers’ protocol.
# All statistical analyses were performed using GraphPad Prism version 5.0 (GraphPad software, Inc, San Diego, CA, USA). Two-tailed student’s t-test was used in comparison of means of two groups. Ordinary one-way analysis of variance (ANOVA) followed by Newman–Keuls or Dunnett comparison post hoc tests were used in comparison of means of multiple groups. Asterisks denote actual p-value significances (* < 0.05, ** < 0.01, *** < 0.001 and **** < 0.0001), and N is the number of animals or the number of independent experiments (cell culture) per group. Unless otherwise indicated, data are expressed as Mean ± SD. IC50 to USP13 levels was also estimated using GraphPad Prism version 5.0 (GraphPad software, Inc, San Diego, CA, USA).
compound,measurement,setting,value
"Fc1ccc2nccc(OCc3ccccc3)c2c1 [BK50118-C, 4-benzyloxy-6-fluoroquinoline]",concentration near and above which cell viability decreased,[1],≥ 100 µM
same,alpha-synuclein levels (ELISA),[2],almost complete alpha-synuclein clearance
same,IC50,[3],0.42 nM
